Test results reported in patent US7713994B2 (Wyeth LLC, priority 2005, dated 2010).
pIC50: −log10 of the molar value. Where two headings read alike, the source gives them in different places.

Columns and labels:
cyclin D1/cdk 4 enzyme = biological target: T1, cyclin D1/cdk 4 enzyme (Homo sapiens, UniProt P11802); experiment: CDK4 ELISA kinase assay (phospho-Rb ser 795 detection); assay type: biochemical; conditions: In Vitro Enzyme Assay, cyclin D1/cdk 4, read-out: CDK4 IC50
T1 construct: made in house; host or cells: Sf9 insect cells, recombinant baculovirus
T1 sequence (P11802 whole entry, species assumed): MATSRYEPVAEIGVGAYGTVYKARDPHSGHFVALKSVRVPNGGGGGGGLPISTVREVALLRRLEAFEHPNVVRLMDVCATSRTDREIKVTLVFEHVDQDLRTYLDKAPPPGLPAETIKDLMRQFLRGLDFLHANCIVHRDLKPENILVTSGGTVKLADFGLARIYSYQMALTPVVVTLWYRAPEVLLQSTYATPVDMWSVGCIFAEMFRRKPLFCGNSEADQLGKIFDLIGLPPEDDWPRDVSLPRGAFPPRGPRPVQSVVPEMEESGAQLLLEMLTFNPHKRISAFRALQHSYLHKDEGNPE
T1 sequence (P24385 whole entry partner, species assumed): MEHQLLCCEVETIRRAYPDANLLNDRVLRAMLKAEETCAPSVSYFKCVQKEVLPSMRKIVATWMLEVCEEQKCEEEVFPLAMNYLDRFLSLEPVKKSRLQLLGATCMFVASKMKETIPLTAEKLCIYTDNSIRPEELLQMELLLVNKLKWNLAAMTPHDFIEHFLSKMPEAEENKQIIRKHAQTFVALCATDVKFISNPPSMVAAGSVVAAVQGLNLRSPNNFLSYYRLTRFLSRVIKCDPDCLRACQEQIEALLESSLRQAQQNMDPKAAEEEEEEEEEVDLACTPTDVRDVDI
Method in brief: (§1)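 Screening was done at 10 ug/ml compound. Each partially purified cyclin/CDK complex, produced in baculovirus-infected Sf9 cells, phosphorylated a coated GST-Rb C-terminal fragment with 200 μM ATP, and Ser795 phosphorylation was quantified by HRP-ELISA at 450 nm.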

cyclin E/CDK2 enzyme = biological target: T2, cyclin E/CDK2 enzyme (Homo sapiens, UniProt P24941); experiment: CDK2 ELISA kinase assay (phospho-Rb ser 795 detection); assay type: biochemical; conditions: In Vitro Enzyme Assay, cyclin E/CDK2, read-out: CDK2 IC50
T2 construct: made in house; host or cells: Sf9 insect cells, recombinant baculovirus
Method in brief: as §1

cyclin B/CDK1 enzyme = biological target: T3, cyclin B/CDK1 enzyme (Homo sapiens, UniProt P06493); experiment: CDK1 ELISA kinase assay (phospho-Rb ser 795 detection); assay type: biochemical; conditions: In Vitro Enzyme Assay, cyclin B/CDK1, read-out: CDK1 IC50
T3 construct: purchased New England BioLabs; host or cells: Sf9 insect cells, recombinant baculovirus
T3 sequence (P06493 whole entry): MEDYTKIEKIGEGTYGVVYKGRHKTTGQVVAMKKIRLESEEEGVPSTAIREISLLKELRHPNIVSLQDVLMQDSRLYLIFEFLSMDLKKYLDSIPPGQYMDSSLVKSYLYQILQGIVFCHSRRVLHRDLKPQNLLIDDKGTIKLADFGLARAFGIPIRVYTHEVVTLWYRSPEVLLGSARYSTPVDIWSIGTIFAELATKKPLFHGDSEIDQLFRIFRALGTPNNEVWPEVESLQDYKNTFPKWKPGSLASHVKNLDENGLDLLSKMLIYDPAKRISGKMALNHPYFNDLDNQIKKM
T3 sequence (P14635 whole entry partner): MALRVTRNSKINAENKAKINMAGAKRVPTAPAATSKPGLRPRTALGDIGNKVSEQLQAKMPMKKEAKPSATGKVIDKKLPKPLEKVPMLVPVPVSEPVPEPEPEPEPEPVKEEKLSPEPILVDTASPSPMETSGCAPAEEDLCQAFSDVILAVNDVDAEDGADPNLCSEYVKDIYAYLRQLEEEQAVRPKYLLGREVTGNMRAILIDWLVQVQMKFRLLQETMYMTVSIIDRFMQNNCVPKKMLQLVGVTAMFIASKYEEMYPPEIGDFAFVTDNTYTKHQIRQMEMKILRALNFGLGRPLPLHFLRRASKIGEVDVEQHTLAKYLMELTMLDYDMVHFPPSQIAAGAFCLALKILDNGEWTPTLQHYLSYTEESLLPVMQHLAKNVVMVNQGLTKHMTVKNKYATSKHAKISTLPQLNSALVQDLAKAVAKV
Method in brief: as §1

BT474 = experiment: Cytotoxicity assay (SRB), BT474; assay type: cell-based; conditions: BT474 cells, 6 days, SRB, read-out: In Vitro Cellular Activity IC50 BT474
Method in brief: (§2)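 Overnight-seeded monolayers (4000–12000 cells/well by line) receive compound in 5% FBS medium at 37 °C, 7% CO2. After 3 d, or 6 d for BT474, cellular protein is fixed with cold TCA, stained with SRB and read at 540 nm against untreated wells.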

HCT-116 = experiment: Cytotoxicity assay (SRB), HCT-116; assay type: cell-based; conditions: HCT116 cells, 3 days, SRB, read-out: In Vitro Cellular Activity IC50 HCT116
Method in brief: as §2

LoVo = experiment: Cytotoxicity assay (SRB), LoVo; assay type: cell-based; conditions: LoVo cells, 3 days, SRB, read-out: In Vitro Cellular Activity IC50 LOVO
Method in brief: as §2

MCF-7 = experiment: Cytotoxicity assay (SRB), MCF-7; assay type: cell-based; conditions: MCF-7 cells, 3 days, SRB, read-out: In Vitro Cellular Activity IC50 MCF-7
Method in brief: as §2

Structure (SMILES)	pIC50 (cyclin D1/cdk 4 enzyme)	pIC50 (cyclin E/CDK2 enzyme)	pIC50 (cyclin B/CDK1 enzyme)	pIC50 (BT474; Homo sapiens, BT-474, 144 h)	pIC50 (HCT-116; Homo sapiens, HCT-116, 72 h)	pIC50 (LoVo; Homo sapiens, LoVo, 72 h)	pIC50 (MCF-7; Homo sapiens, MCF7, 72 h)	pIC50 (BT474)	pIC50 (HCT-116)	pIC50 (LoVo)	pIC50 (MCF-7)
CCCOc1ccc(CN/C=C2\C(=O)NC(=O)c3ccc(-c4ccoc4)cc32)cc1O [Example 485, (4Z)-6-(3-Furyl)-4-{[(3-hydroxy-4-propoxybenzyl)amino]methylene}isoquinoline-1,3(2H,4H)-dione]	7.22	< 4.30	< 4.30	5.97	5.87	6.03	5.85				
O=C1NC(=O)c2ccc(I)cc2/C1=C/NCc1ccc(-c2ccccc2)c(O)c1 [Example 490, 4-{[(2-Hydroxy-biphenyl-4-ylmethyl)-amino]-methylene}-6-iodo-4H-isoquinoline-1,3-dione]	6.89	4.82	4.32	6.59	6.38	6.47	6.06				
O=C1NC(=O)c2ccc(-c3ccoc3)cc2/C1=C/Nc1ccc(CN2CCC(CCO)CC2)cc1 [Example 491, (4Z)-6-(3-Furyl)-4-{[(4-{[4-(2-hydroxyethyl)piperidin-1-yl]methyl}phenyl)amino]methylene}isoquinoline-1,3(2H,4H)-dione]	7.30	< 4.30	< 4.30	5.92	5.46	5.57	6.00				
O=Cc1ccc(-c2ccc3c(c2)/C(=C/Nc2ccc(CN4CCCCC4)cc2)C(=O)NC3=O)o1 [Example 492, 5-[(4Z)-1,3-Dioxo-4-({[4-(piperidin-1-ylmethyl)phenyl]amino}methylene)-1,2,3,4-tetrahydroisoquinolin-6-yl]-2-furaldehyde]	6.62	< 4.30	< 4.30	5.48	6.00	5.52	5.39				
O=C1NC(=O)c2ccc(-c3ccoc3)cc2/C1=C/NCc1ccc(-c2ccccc2)c(O)c1 [Example 494, 6-Furan-3-yl-4-{[(2-hydroxy-biphenyl-4-ylmethyl)-amino]-methylene}-4H-isoquinoline-1,3-dione]	7.52	4.74	4.37	6.28	6.24	6.28	6.00				
CCCCc1ccc(CN/C=C2\C(=O)NC(=O)c3ccc(I)cc32)cc1O [Example 495, 4-[(4-Butyl-3-hydroxy-benzylamino)-methylene]-6-iodo-4H-isoquinoline-1,3-dione]	6.52	< 4.30	< 4.30	5.35	5.31	5.20	5.48				
O=C1NC(=O)c2ccc(I)cc2/C1=C/NCc1cc(O)ccc1I [Example 496, 4-[(5-Hydroxy-2-iodo-benzylamino)-methylene]-6-iodo-4H-isoquinoline-1,3-dione]	5.57	< 4.30	< 4.30	5.13	5.59	5.51	5.27				
CN1CCN(c2ccc(N/C=C3\C(=O)NC(=O)c4ccc(-c5ccoc5)cc43)c(F)n2)CC1 [Example 497, (4Z)-4-({[2-Fluoro-6-(4-methylpiperazin-1-yl)pyridin-3-yl]amino}methylene)-6-(3-furyl)isoquinoline-1,3(2H,4H)-dione]	6.43	< 4.30	< 4.30					5.57	5.59	5.49	5.85
CN1CCN(c2ccc(N/C=C3\C(=O)NC(=O)c4ccc(-c5ccoc5)cc43)c(F)n2)CC1 [Example 498, (4Z)-4-({[2-Fluoro-6-(4-methylpiperazin-1-yl)pyridin-3-yl]amino}methylene)-6-(3-furyl)isoquinoline-1,3(2H,4H)-dione]	6.68	4.49	4.71					6.00	5.96	5.80	5.46
O=C1NC(=O)c2ccc(I)cc2/C1=C/NCc1cc(O)ccc1-c1ccco1 [Example 499, 4-[(2-Furan-2-yl-5-hydroxy-benzylamino)-methylene]-6-iodo-4H-isoquinoline-1,3-dione]	5.27	4.38	< 4.30	5.01	5.32	5.08	5.04				
